Values quoted from earlier work as cited in patent US12582620B2, “Oral solutions comprising lisdexamfetamine salts” (Adalvo Limited, priority 2019, dated 2026).

Assays:
[1] = acidic versus alkaline conditions
[2] = not given; remark: listed apart in the source

In the case of C[C@@H](Cc1ccccc1)NC(=O)[C@@H](N)CCCCN [Lisdexamfetamine dimesylate, (2S)-2,6-diamino-N-[(1S)-1-methyl-2-phenylethyl] hexanamide dimethanesulfonate], the Susceptibility to hydrolysis [1] is given as “more hydrolysis-susceptible under alkaline conditions”, the Solubility in water is given as “very soluble in water” and the Change of solubility ([2]; increasing the pH from 8 to 13) is given as “modest reductions”. The Solubility ([2]; physiologically relevant pH range (pH 1-8), saturated buffered aqueous solutions) was “highly soluble”.
